Laboratory results as given in PubChem BioAssay (NCI).
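Results reflect a 48-hour exposure of cells in 96-well plates to compound at five concentrations. TGI denotes the concentration required for complete inhibition of growth.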

Legend:
Experiment in all cases: growth of human tumour cells (NCI), 48 h
786-0 renal = system: 786-0 renal
A498 renal = system: A498 renal
A549 NSCLC = system: A549 NSCLC
ACHN renal = system: ACHN renal
BT-549 breast = system: BT-549 breast
CAKI-1 renal = system: CAKI-1 renal
CCRF-CEM leukemia = system: CCRF-CEM leukemia
COLO 205 colon = system: COLO 205 colon
DU-145 prostate = system: DU-145 prostate
EKVX NSCLC = system: EKVX NSCLC
HCT-116 colon = system: HCT-116 colon
HCT-15 colon = system: HCT-15 colon
HL-60(TB) leukemia = system: HL-60(TB) leukemia
HOP-62 NSCLC = system: HOP-62 NSCLC
HOP-92 NSCLC = system: HOP-92 NSCLC
HS 578T breast = system: HS 578T breast
HT29 colon = system: HT29 colon
IGROV1 ovarian = system: IGROV1 ovarian
K-562 leukemia = system: K-562 leukemia
KM12 colon = system: KM12 colon
LOX IMVI melanoma = system: LOX IMVI melanoma
M14 melanoma = system: M14 melanoma
MALME-3M melanoma = system: MALME-3M melanoma
MCF7 breast = system: MCF7 breast
MDA-MB-231 breast = system: MDA-MB-231 breast
MDA-MB-435 = system: MDA-MB-435
MDA-N = system: MDA-N
MOLT-4 leukemia = system: MOLT-4 leukemia
NCI-H226 lung = system: NCI-H226 lung
NCI-H23 lung = system: NCI-H23 lung
NCI-H522 lung = system: NCI-H522 lung
NCI/ADR-RES ovarian = system: NCI/ADR-RES ovarian
OVCAR-3 ovarian = system: OVCAR-3 ovarian
OVCAR-4 ovarian = system: OVCAR-4 ovarian
OVCAR-5 ovarian = system: OVCAR-5 ovarian
OVCAR-8 ovarian = system: OVCAR-8 ovarian
PC-3 prostate = system: PC-3 prostate
RPMI-8226 leukemia = system: RPMI-8226 leukemia
RXF 393 renal = system: RXF 393 renal
SF-268 CNS = system: SF-268 CNS
SF-295 CNS = system: SF-295 CNS
SF-539 CNS = system: SF-539 CNS
SK-MEL-2 melanoma = system: SK-MEL-2 melanoma
SK-MEL-28 melanoma = system: SK-MEL-28 melanoma
SK-MEL-5 melanoma = system: SK-MEL-5 melanoma
SK-OV-3 ovarian = system: SK-OV-3 ovarian
SN12C renal = system: SN12C renal
SNB-19 CNS = system: SNB-19 CNS
SNB-75 CNS = system: SNB-75 CNS
SR leukemia = system: SR leukemia
SW-620 colon = system: SW-620 colon
T-47D breast = system: T-47D breast
UACC-62 melanoma = system: UACC-62 melanoma
UO-31 renal = system: UO-31 renal
NCI-H460 lung = system: NCI-H460 lung
TK-10 renal = system: TK-10 renal
U251 CNS = system: U251 CNS
UACC-257 melanoma = system: UACC-257 melanoma

Compound `COc1cc(S(=O)(=O)Nc2ccc(-c3csc(/N=C\c4ccccc4O)n3)cc2)ccc1Cl` has a TGI (786-0 renal) greater than 100 µM, a TGI (A498 renal) greater than 100 µM and a TGI (A549 NSCLC) greater than 100 µM. The TGI (ACHN renal) was greater than 100 µM, the TGI (BT-549 breast) was greater than 100 µM and the TGI (CAKI-1 renal) was greater than 100 µM. The TGI (CCRF-CEM leukemia) was greater than 100 µM, the TGI (COLO 205 colon) was greater than 100 µM and the TGI (DU-145 prostate) was greater than 100 µM. The TGI (EKVX NSCLC) was greater than 100 µM, the TGI (HCT-116 colon) was greater than 100 µM and the TGI (HCT-15 colon) was greater than 100 µM. For the same compound, the TGI (HL-60(TB) leukemia) was 98.6 µM, the TGI (HOP-62 NSCLC) was greater than 100 µM and the TGI (HOP-92 NSCLC) was greater than 100 µM. It also gave a TGI (HS 578T breast) greater than 100 µM, a TGI (HT29 colon) greater than 100 µM and a TGI (IGROV1 ovarian) greater than 100 µM. The TGI (K-562 leukemia) was greater than 100 µM, the TGI (KM12 colon) was greater than 100 µM and the TGI (LOX IMVI melanoma) was greater than 100 µM. For the same compound, the TGI (M14 melanoma) was greater than 100 µM, the TGI (MALME-3M melanoma) was greater than 100 µM and the TGI (MCF7 breast) was 59.7 µM. It also gave a TGI (MDA-MB-231 breast) greater than 100 µM, a TGI (MDA-MB-435) greater than 100 µM and a TGI (MDA-N) greater than 100 µM. It also gave a TGI (MOLT-4 leukemia) of 70.3 µM, a TGI (NCI-H226 lung) greater than 100 µM and a TGI (NCI-H23 lung) greater than 100 µM. For the same compound, the TGI (NCI-H522 lung) was greater than 100 µM, the TGI (NCI/ADR-RES ovarian) was greater than 100 µM and the TGI (OVCAR-3 ovarian) was greater than 100 µM. For the same compound, the TGI (OVCAR-4 ovarian) was greater than 100 µM, the TGI (OVCAR-5 ovarian) was greater than 100 µM and the TGI (OVCAR-8 ovarian) was greater than 100 µM. For the same compound, the TGI (PC-3 prostate) was greater than 100 µM, the TGI (RPMI-8226 leukemia) was greater than 100 µM and the TGI (RXF 393 renal) was greater than 100 µM. For the same compound, the TGI (SF-268 CNS) was greater than 100 µM, the TGI (SF-295 CNS) was greater than 100 µM and the TGI (SF-539 CNS) was greater than 100 µM. It also gave a TGI (SK-MEL-2 melanoma) of 78.5 µM, a TGI (SK-MEL-28 melanoma) greater than 100 µM and a TGI (SK-MEL-5 melanoma) greater than 100 µM. For the same compound, the TGI (SK-OV-3 ovarian) was greater than 100 µM, the TGI (SN12C renal) was greater than 100 µM and the TGI (SNB-19 CNS) was greater than 100 µM. The TGI (SNB-75 CNS) was greater than 100 µM, the TGI (SR leukemia) was 95.2 µM and the TGI (SW-620 colon) was greater than 100 µM. For the same compound, the TGI (T-47D breast) was 61.2 µM, the TGI (UACC-62 melanoma) was greater than 100 µM and the TGI (UO-31 renal) was greater than 100 µM.

For `CCOC(=O)c1ccc(N(C)Cc2cnc3nc(N)nc(N)c3n2)cc1`, the TGI (786-0 renal) was greater than 100 µM, the TGI (A498 renal) was 59.8 µM and the TGI (ACHN renal) was 20.2 µM. For the same compound, the TGI (BT-549 breast) was greater than 100 µM, the TGI (CAKI-1 renal) was 45 µM and the TGI (CCRF-CEM leukemia) was greater than 100 µM. For the same compound, the TGI (COLO 205 colon) was greater than 100 µM, the TGI (DU-145 prostate) was greater than 100 µM and the TGI (EKVX NSCLC) was greater than 100 µM. It also gave a TGI (HCT-116 colon) greater than 100 µM, a TGI (HCT-15 colon) greater than 100 µM and a TGI (HL-60(TB) leukemia) greater than 100 µM. It also gave a TGI (HOP-62 NSCLC) of 54.7 µM, a TGI (HS 578T breast) of 73.1 µM and a TGI (HT29 colon) greater than 100 µM. For the same compound, the TGI (IGROV1 ovarian) was 86 µM, the TGI (K-562 leukemia) was greater than 100 µM and the TGI (KM12 colon) was greater than 100 µM. For the same compound, the TGI (LOX IMVI melanoma) was greater than 100 µM, the TGI (M14 melanoma) was 97.2 µM and the TGI (MALME-3M melanoma) was 51.1 µM. The TGI (MCF7 breast) was 49.8 µM, the TGI (MDA-MB-231 breast) was 81.7 µM and the TGI (MDA-MB-435) was greater than 100 µM. For the same compound, the TGI (MDA-N) was greater than 100 µM, the TGI (MOLT-4 leukemia) was greater than 100 µM and the TGI (NCI-H226 lung) was 41.8 µM. It also gave a TGI (NCI-H23 lung) greater than 100 µM, a TGI (NCI-H460 lung) greater than 100 µM and a TGI (NCI/ADR-RES ovarian) of 38.8 µM. For the same compound, the TGI (OVCAR-3 ovarian) was 34.9 µM, the TGI (OVCAR-5 ovarian) was greater than 100 µM and the TGI (OVCAR-8 ovarian) was 29.2 µM. For the same compound, the TGI (PC-3 prostate) was 88.4 µM, the TGI (RPMI-8226 leukemia) was greater than 100 µM and the TGI (RXF 393 renal) was 33 µM. It also gave a TGI (SF-268 CNS) greater than 100 µM, a TGI (SF-295 CNS) greater than 100 µM and a TGI (SF-539 CNS) of 33.9 µM. The TGI (SK-MEL-2 melanoma) was 80 µM, the TGI (SK-MEL-28 melanoma) was 83.8 µM and the TGI (SK-MEL-5 melanoma) was greater than 100 µM. For the same compound, the TGI (SK-OV-3 ovarian) was 51.4 µM, the TGI (SN12C renal) was greater than 100 µM and the TGI (SNB-19 CNS) was greater than 100 µM. The TGI (SNB-75 CNS) was 54 µM, the TGI (SR leukemia) was greater than 100 µM and the TGI (SW-620 colon) was greater than 100 µM. It also gave a TGI (T-47D breast) of 79.7 µM, a TGI (TK-10 renal) of 35.4 µM and a TGI (U251 CNS) greater than 100 µM. It also gave a TGI (UACC-257 melanoma) greater than 100 µM, a TGI (UACC-62 melanoma) of 33.8 µM and a TGI (UO-31 renal) of 72.1 µM.
